Entries after “also recorded” stand apart in the source; their conditions may differ. Where two headings read alike, the source gives them in different places. Blank lines part the entries; values can stand above or below the compound they belong to.
How the values were obtained:
LCK = LCK (Homo sapiens, UniProt P06239); test: SelectScreen kinase profiling; assay type: biochemical; settings: average of duplicate
[1] = system: ibrutinib’s top 50 targets; test: Single-point kinase profiling, count of kinases inhibited; assay type: biochemical; settings: 1 μM, of 50 kinases
RET = RET (Homo sapiens, UniProt P07949); test: SelectScreen kinase profiling; assay type: biochemical; settings: average of duplicate
SRC = SRC (Homo sapiens, UniProt P12931); test: SelectScreen kinase profiling / Z′-Lyte kinase assay
FLT4 (VEGFR3) = FLT4 (VEGFR3) (Homo sapiens, UniProt P35916); test: SelectScreen kinase profiling; assay type: biochemical; settings: average of duplicate
MAP2K2 (MEK2) = MAP2K2 (MEK2) (Homo sapiens, UniProt P36507); test: SelectScreen kinase profiling; assay type: biochemical; settings: average of duplicate
PTK6 (Brk) = PTK6 (Brk) (Homo sapiens, UniProt Q13882); test: SelectScreen kinase profiling; assay type: biochemical; settings: average of duplicate
KIT = KIT (Homo sapiens, UniProt P10721); test: SelectScreen kinase profiling; assay type: biochemical; settings: average of duplicate
[2] = target: MAP2K1 (MEK1) S218D S222D (Homo sapiens, UniProt Q02750, S218D/S222D); test: SelectScreen kinase profiling; assay type: biochemical; settings: average of duplicate
ZAK = ZAK (Homo sapiens, UniProt Q9NYL2); test: SelectScreen kinase profiling; assay type: biochemical; settings: average of duplicate
BLK = BLK (Homo sapiens, UniProt P51451); test: AssayQuant kinact/Ki profiling, PhosphoSens CSox-based kinetic assay; assay type: biochemical; set-up: purchased ThermoFisher / Life Technologies SelectScreen PV3683; settings: for kinact/KI / BLK kinact/Ki: 2.5 nM enzyme, 1000 µM ATP, two step fit; for kinact: fitted value, two step
ITK [3] = target: T1, ITK (Homo sapiens, UniProt Q08881); test: SelectScreen kinase profiling / Z′-Lyte kinase assay
T1 sequence (Q08881 1-620): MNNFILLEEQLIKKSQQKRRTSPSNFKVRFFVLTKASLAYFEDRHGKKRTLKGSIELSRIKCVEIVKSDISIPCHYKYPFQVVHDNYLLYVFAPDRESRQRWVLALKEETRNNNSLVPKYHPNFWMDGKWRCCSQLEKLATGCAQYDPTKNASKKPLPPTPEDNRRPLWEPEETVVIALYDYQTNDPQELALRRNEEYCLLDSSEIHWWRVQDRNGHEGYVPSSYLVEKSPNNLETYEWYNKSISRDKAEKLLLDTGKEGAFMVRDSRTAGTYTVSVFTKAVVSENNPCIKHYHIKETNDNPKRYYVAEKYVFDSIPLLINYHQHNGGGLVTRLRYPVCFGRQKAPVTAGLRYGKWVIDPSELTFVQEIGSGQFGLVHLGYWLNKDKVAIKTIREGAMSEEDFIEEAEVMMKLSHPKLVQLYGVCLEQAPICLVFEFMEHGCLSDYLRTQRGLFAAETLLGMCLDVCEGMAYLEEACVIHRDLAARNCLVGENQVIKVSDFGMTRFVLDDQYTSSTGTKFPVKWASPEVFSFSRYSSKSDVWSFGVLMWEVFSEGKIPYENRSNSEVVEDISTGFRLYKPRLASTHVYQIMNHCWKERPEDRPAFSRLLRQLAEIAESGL

ABL2 (Arg) = ABL2 (Arg) (Homo sapiens, UniProt P42684); test: SelectScreen kinase profiling; assay type: biochemical; settings: average of duplicate
FGFR2 = FGFR2 (Homo sapiens, UniProt P21802); test: SelectScreen kinase profiling; assay type: biochemical; settings: average of duplicate
ITK [4] = target: T1, ITK; test: AssayQuant kinact/Ki profiling, PhosphoSens CSox-based kinetic assay; settings: for kinact: read-out: ITK kinact; for kinact/KI: read-out: ITK kinact/KI
BTK-NanoLuc fusion = target: T2, BTK-NanoLuc fusion (Homo sapiens, UniProt Q06187); test: NanoBRET cellular engagement of BTK; assay type: cell-based; settings: for IC50: HEK293 cells
T2 construct: host or cells: HEK293
Experimental: NanoBRET Experiments: HEK293 cells were transfected with the BTK-NanoLuc fusion vector (Promega, #N2501) according to the manufacturer’s protocol. After […]
Promega, #N2501) for 30 minutes. After an additional 30, 60, or 90 minutes the NanoBRET complete substrate plus inhibitor solution (3X solution in Opti-MEM I reduced serum medium, no phenol red, Promega, #N2501) was added to each well.
After 5-10 minutes, the BRET ratio was measured using BMG Labtech CLARIOstar with preloaded filters for donor 450nm/80nm BP (band pass) and acceptor 610nm LP (long

FRK (PTK5) = FRK (PTK5) (Homo sapiens, UniProt P42685); test: SelectScreen kinase profiling; assay type: biochemical; settings: average of duplicate
[5] = BTK selectivity from IC50 values

BLK, sequence (P51451 whole entry): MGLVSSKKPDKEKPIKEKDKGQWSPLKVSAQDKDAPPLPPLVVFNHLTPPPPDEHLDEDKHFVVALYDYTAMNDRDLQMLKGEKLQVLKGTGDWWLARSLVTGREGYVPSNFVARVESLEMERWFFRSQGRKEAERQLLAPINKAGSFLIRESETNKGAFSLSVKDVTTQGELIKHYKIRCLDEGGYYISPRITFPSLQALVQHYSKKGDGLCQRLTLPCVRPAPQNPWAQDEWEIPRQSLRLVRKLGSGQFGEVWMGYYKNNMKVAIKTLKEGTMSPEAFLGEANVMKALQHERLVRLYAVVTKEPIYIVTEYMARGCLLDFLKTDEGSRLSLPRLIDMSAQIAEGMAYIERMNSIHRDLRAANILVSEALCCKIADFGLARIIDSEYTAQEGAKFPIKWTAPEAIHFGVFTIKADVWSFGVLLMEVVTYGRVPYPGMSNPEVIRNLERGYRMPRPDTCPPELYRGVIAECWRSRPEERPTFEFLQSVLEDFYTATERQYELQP
SRC, sequence (P12931 whole entry): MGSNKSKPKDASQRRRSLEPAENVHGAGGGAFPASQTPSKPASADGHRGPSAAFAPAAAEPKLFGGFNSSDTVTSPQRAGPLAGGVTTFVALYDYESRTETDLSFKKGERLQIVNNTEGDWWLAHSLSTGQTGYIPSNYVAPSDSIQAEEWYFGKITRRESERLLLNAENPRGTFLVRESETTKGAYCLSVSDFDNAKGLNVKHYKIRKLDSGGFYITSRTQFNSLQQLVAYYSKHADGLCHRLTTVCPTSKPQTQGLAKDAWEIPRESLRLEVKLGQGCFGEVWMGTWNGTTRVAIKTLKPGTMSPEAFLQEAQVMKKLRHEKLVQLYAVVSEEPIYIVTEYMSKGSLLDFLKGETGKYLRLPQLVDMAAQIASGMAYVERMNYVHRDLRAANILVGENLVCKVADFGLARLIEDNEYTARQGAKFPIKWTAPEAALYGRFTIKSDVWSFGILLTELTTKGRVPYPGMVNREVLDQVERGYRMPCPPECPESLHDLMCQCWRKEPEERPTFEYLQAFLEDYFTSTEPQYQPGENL
T2 sequence (Q06187 whole entry, the tested form may be a part): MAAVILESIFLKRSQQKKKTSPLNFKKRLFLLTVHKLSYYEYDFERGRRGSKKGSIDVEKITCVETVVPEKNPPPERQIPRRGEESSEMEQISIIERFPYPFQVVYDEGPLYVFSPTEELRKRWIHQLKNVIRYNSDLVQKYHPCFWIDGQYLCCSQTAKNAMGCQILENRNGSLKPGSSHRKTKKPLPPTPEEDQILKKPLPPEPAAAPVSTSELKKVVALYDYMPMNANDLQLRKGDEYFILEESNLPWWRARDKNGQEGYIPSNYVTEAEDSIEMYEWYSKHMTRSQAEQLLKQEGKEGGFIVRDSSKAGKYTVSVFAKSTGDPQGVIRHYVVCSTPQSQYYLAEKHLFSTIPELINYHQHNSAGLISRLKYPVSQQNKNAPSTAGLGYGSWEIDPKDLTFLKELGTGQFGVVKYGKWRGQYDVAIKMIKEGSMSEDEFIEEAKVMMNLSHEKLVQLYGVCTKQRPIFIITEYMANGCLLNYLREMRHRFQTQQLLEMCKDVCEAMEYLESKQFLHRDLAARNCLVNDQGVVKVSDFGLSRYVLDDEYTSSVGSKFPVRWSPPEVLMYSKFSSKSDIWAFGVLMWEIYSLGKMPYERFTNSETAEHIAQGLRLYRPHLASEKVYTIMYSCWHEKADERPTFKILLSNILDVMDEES
KIT, sequence (P10721 26-976): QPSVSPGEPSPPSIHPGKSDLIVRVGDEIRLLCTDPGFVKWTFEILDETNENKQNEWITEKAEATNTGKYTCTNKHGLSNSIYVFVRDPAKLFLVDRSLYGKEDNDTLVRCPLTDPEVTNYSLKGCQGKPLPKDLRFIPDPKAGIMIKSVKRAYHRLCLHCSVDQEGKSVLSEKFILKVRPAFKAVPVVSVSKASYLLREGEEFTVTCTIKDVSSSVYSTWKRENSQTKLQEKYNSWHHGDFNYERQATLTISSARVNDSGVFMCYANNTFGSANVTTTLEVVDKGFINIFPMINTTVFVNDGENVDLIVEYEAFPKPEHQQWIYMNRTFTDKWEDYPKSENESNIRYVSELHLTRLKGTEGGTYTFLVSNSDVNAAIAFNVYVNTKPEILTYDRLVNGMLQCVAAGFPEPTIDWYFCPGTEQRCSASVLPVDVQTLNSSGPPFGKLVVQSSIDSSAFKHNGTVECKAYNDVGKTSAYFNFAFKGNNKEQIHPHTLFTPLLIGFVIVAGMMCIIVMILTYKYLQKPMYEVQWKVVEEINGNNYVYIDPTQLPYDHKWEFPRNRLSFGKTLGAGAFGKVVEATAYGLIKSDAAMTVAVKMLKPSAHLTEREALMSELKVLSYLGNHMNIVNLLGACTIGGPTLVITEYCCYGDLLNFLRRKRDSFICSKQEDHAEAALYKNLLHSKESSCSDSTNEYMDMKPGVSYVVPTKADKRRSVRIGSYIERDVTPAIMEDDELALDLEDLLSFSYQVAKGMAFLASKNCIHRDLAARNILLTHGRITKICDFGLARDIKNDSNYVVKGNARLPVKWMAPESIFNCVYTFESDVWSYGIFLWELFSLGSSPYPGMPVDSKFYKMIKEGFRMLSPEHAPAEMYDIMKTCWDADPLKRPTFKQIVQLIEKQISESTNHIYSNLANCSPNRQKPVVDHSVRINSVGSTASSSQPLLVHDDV
FRK (PTK5), sequence (P42685 whole entry): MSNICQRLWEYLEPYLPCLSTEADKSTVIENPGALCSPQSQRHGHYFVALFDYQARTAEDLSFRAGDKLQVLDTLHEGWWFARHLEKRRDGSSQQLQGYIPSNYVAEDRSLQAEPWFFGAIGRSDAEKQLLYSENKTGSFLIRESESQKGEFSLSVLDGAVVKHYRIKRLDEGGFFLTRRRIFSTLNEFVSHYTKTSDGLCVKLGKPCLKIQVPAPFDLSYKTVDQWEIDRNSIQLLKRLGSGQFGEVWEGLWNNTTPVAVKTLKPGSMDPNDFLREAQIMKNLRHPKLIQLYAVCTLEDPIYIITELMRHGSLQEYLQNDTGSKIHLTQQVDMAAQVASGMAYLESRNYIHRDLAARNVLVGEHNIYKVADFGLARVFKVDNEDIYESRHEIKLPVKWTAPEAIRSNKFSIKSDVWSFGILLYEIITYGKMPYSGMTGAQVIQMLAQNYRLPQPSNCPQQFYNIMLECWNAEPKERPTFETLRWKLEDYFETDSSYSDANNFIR
PTK6 (Brk), sequence (Q13882 whole entry): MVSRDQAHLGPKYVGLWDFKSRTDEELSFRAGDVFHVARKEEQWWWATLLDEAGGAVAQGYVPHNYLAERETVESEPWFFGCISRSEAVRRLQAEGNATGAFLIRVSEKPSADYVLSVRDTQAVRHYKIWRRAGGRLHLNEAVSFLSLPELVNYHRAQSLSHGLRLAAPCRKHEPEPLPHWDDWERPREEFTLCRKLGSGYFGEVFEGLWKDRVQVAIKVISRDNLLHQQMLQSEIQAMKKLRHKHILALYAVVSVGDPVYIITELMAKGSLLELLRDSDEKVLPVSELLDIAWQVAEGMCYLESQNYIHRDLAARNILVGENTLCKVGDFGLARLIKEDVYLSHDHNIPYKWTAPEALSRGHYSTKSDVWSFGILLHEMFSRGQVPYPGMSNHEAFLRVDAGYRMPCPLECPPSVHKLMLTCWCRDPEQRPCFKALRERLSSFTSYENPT
MAP2K1 (MEK1) S218D S222D, sequence (Q02750 whole entry S218D/S222D): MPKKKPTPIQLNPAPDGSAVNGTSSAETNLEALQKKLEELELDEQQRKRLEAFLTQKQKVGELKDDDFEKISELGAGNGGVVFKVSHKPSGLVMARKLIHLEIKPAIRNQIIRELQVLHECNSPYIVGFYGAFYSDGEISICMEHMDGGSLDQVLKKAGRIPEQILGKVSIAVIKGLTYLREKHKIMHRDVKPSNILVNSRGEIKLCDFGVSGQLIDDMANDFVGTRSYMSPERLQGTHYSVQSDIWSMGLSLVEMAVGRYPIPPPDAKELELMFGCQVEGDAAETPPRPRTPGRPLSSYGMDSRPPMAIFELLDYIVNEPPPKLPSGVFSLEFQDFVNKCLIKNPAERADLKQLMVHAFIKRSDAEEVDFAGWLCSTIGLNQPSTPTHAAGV
LCK, sequence (P06239 whole entry): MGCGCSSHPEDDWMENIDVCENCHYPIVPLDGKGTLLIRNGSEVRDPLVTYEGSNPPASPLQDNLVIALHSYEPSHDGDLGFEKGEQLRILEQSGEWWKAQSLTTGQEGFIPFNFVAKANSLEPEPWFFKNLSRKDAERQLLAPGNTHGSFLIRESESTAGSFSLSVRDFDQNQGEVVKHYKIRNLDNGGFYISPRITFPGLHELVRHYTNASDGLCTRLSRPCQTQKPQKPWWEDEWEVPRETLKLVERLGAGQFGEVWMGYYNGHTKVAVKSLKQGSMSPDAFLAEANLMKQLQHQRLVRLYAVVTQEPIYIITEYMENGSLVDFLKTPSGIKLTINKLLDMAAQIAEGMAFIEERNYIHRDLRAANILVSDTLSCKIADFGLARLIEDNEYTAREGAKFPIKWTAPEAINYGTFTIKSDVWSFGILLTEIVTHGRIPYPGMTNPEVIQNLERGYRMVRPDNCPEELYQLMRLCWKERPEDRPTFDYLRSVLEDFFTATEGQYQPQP
MAP2K2 (MEK2), sequence (P36507 whole entry): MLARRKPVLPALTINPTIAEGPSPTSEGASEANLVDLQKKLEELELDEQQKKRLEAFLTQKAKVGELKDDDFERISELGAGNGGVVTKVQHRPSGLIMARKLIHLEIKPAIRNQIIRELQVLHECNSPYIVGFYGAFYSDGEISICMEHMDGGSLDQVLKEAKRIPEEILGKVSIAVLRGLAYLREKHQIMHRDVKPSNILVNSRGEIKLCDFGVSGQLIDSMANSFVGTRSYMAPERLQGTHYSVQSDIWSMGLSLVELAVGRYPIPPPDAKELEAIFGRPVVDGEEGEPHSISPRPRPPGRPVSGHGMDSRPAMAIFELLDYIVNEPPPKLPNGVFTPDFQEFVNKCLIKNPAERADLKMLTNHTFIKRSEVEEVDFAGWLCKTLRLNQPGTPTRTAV

inhibition at 1 µM (LCK): 74% | number of kinases inhibited to 10% of control [1]: 6 | number of kinases inhibited to 50% of control [1]: 9 | inhibition at 1 µM (RET): 5% | IC50 (SRC): 1710 nM | inhibition at 1 µM (SRC): 43% | SRC, BTK/Kinase (SRC; [5]): 134 x | Hillslope (SRC; SRC IC50 curve): 0.49 | inhibition at 0.000495 µM (SRC; read-out: % Inhibition Point 1): 2% | inhibition at 0.00152 µM (SRC; read-out: % Inhibition Point 1): 15% | inhibition at 0.00457 µM (SRC; read-out: % Inhibition Point 1): 19% | inhibition at 0.0137 µM (SRC; read-out: % Inhibition Point 1): 23% | inhibition at 0.0412 µM (SRC; read-out: % Inhibition Point 1): 19% | inhibition at 0.123 µM (SRC; read-out: % Inhibition Point 1): 30% | inhibition at 0.37 µM (SRC; read-out: % Inhibition Point 1): 38% | inhibition at 1.11 µM (SRC; read-out: % Inhibition Point 1): 57% | inhibition at 3.33 µM (SRC; read-out: % Inhibition Point 1): 76% | inhibition at 10 µM (SRC; read-out: % Inhibition Point 1): 80% | inhibition at 0.000495 µM (SRC; read-out: % Inhibition Point 2): -2% | inhibition at 0.00152 µM (SRC; read-out: % Inhibition Point 2): 9% | inhibition at 0.00457 µM (SRC; read-out: % Inhibition Point 2): 20% | inhibition at 0.0137 µM (SRC; read-out: % Inhibition Point 2): 18% | inhibition at 0.0412 µM (SRC; read-out: % Inhibition Point 2): 20% | inhibition at 0.123 µM (SRC; read-out: % Inhibition Point 2): 28% | inhibition at 0.37 µM (SRC; read-out: % Inhibition Point 2): 42% | inhibition at 1.11 µM (SRC; read-out: % Inhibition Point 2): 58% | inhibition at 3.33 µM (SRC; read-out: % Inhibition Point 2): 81% | inhibition at 10 µM (SRC; read-out: % Inhibition Point 2): 88% | remaining activity at 1 µM (SRC; read-out: SRC percent of control): 57% | inhibition at 1 µM (FLT4 (VEGFR3)): 5% | inhibition at 1 µM (MAP2K2 (MEK2)): 2% | inhibition at 1 µM (PTK6 (Brk)): 69% | inhibition at 1 µM (KIT): 1% | inhibition at 1 µM [2]: 4% | inhibition at 1 µM (ZAK): 0% | kinact/KI (BLK): 35000 M⁻¹ s⁻¹ | BLK kinact/Ki (BLK; listed as Dimethyl Analog): 35,500 M^-1S^-1 | kinact (BLK): 0.0021 s⁻¹ | IC50 (ITK [3]): > 10000 nM | inhibition at 1 µM (ITK [3]): 8% | ITK, BTK/Kinase (ITK [3]; [5]): > 781 x | Hillslope (ITK [3]; ITK IC50 curve): 1.28 | inhibition at 0.00457 µM (ITK [3]; read-out: % Inhibition Point 1): -1% | inhibition at 0.0137 µM (ITK [3]; read-out: % Inhibition Point 1): -4% | inhibition at 0.0412 µM (ITK [3]; read-out: % Inhibition Point 1): -4% | inhibition at 0.123 µM (ITK [3]; read-out: % Inhibition Point 1): -2% | inhibition at 0.37 µM (ITK [3]; read-out: % Inhibition Point 1): 5% | inhibition at 1.11 µM (ITK [3]; read-out: % Inhibition Point 1): 8% | inhibition at 3.33 µM (ITK [3]; read-out: % Inhibition Point 1): 13% | inhibition at 10 µM (ITK [3]; read-out: % Inhibition Point 1): 51% | inhibition at 0.000495 µM (ITK [3]; read-out: % Inhibition Point 2): 7% | inhibition at 0.00152 µM (ITK [3]; read-out: % Inhibition Point 2): -5% | inhibition at 0.00457 µM (ITK [3]; read-out: % Inhibition Point 2): -1% | inhibition at 0.0137 µM (ITK [3]; read-out: % Inhibition Point 2): 1% | inhibition at 0.0412 µM (ITK [3]; read-out: % Inhibition Point 2): -2% | inhibition at 0.123 µM (ITK [3]; read-out: % Inhibition Point 2): 0% | inhibition at 0.37 µM (ITK [3]; read-out: % Inhibition Point 2): 5% | inhibition at 1.11 µM (ITK [3]; read-out: % Inhibition Point 2): 4% | inhibition at 3.33 µM (ITK [3]; read-out: % Inhibition Point 2): 16% | inhibition at 10 µM (ITK [3]; read-out: % Inhibition Point 2): 47% | inhibition at 1 µM (ABL2 (Arg)): 0% | inhibition at 1 µM (FGFR2): 8% | kinact (ITK [4]): 0.0005 s⁻¹ | kinact/KI (ITK [4]): 2800 M⁻¹ s⁻¹ | NanoBRET HillSlope (BTK-NanoLuc fusion; 30 + 30): -1.148 | NanoBRET HillSlope (BTK-NanoLuc fusion; 30 + 60): -1.118 | NanoBRET HillSlope (BTK-NanoLuc fusion; 30 + 90): -1.419 | NanoBRET HillSlope (BTK-NanoLuc fusion; 30 min Inc): -1.230 | IC50 (BTK-NanoLuc fusion; 30 min): 806 nM | IC50 (BTK-NanoLuc fusion; 60 min (30 + 30)): 474 nM | IC50 (BTK-NanoLuc fusion; 90 min (30 + 60)): 341 nM | IC50 (BTK-NanoLuc fusion; 90 min post compound addition): 314 nM | IC50 (BTK-NanoLuc fusion; 120 min (30 + 90)): 315 nM | inhibition at 1 µM (FRK (PTK5)): 9%
Compound: C=CC(=O)N1CCCC(n2nc(-c3c(C)cc(Oc4ccccc4)cc3C)c3c(N)ncnc32)C1 (stereo in doubt) [Compound 3]
ITK IC50 (ITK [3]; Z′-Lyte, [ATP] Km app, 1 h incubation, duplicate): no observable activities; also recorded: no observable ITK activity

inhibition at 1 µM (PTK6 (Brk)): 97% | inhibition at 1 µM (KIT): 15% | inhibition at 1 µM [2]: 12% | kinact/KI (BLK): 320000 M⁻¹ s⁻¹ | BLK kinact/Ki (BLK; listed as Monomethyl Analog): 316,000 M^-1S^-1 | kinact (BLK): 0.0034 s⁻¹ | kinact (ITK [4]): 0.0001 s⁻¹ | kinact/KI (ITK [4]): 4120 M⁻¹ s⁻¹ | IC50 (BTK-NanoLuc fusion; 30 min): 211 nM | IC50 (BTK-NanoLuc fusion; 60 min (30 + 30)): 154 nM | IC50 (BTK-NanoLuc fusion; 90 min (30 + 60)): 118 nM | IC50 (BTK-NanoLuc fusion; 90 min post compound addition): 109 nM | IC50 (BTK-NanoLuc fusion; 120 min (30 + 90)): 109 nM | inhibition at 1 µM (FRK (PTK5)): 71%
Compound: C=CC(=O)N1CCC[C@@H](n2nc(-c3ccc(Oc4ccccc4)cc3C)c3c(N)ncnc32)C1 [Compound 2, (R)-1-(3-(4-amino-3-(2-methyl-4-phenoxyphenyl)-1H-pyrazolo[3,4-d]pyrimidin-1-yl)piperidin-1-yl)prop-2-en-1-one]

From publication PMC10009787 (ACS Medicinal Chemistry Letters, 2023)
